According to patent US7091351B2, “Vanadium compounds for treating cancer” (Parker Hughes Institute, priority 1998, dated 2006):

Legend:
Assay type in all cases: cell-based, human
[1] = system: BT-20 breast cancer cells; experiment: Immunofluorescence (anti-α-tubulin / toto-3) morphology, BT-20; details: 25 μM, 48-72 hr
Procedure: In some experiments, immunofluorescence was used to examine the morphologic features of vanadocene-treated cancer cells. At the end of the indicated treatment period, cells were washed twice with PBS and fixed in 2% paraformaldehyde. The cells were permeabilized and non-specific binding sites were blocked with 2.5% BSA in PBS containing 0.1% Triton X-100 for 30 min. Tubulin expression was examined by immunofluorescence using a monoclonal antibody against α-tubulin (Sigma Chemical Co, St. Louis, Mo.) at a dilution of 1:1000 and an anti-mouse IgG conjugated to FITC. Cells were washed in PBS and counterstained with toto-3 (Molecular Probes Inc., Eugene, Oreg.) for 10 min at a dilution of 1:1000. Cells were washed again with PBS and the coverslips were mounted with Vectashield (Vector Labs, Burlingame, Calif.) and viewed with a confocal microscope (Bio-Rad MRC 1024) mounted in a Nikon Labhophot upright microscope. Digital images were saved on a Jaz disk and processed with Adobe Photoshop software (Adobe Systems, Mountain View, Calif.).

[2] = system: HL-60 cells; experiment: MTT cytotoxicity assay of oxovanadium(IV) compounds, HL-60; details: 48 hr
Procedure: (§1) The cytotoxicity of oxovanadium (W) complexes listed in Table 6 were tested against 9 different human cancer cell lines was performed using the MTT (3-[4,5-dimethylthiazol-2-yl]-2,5-diphenyl tetrazolium bromide) assay (Boehringer Mannheim Corp., Indianapolis, Ind.) as described previously (20). Briefly, exponentially growing tumor cells were seeded into a 96-well plate at a density of 4×10^4cells/well and incubated with medium containing the oxovanadium(IV) compounds concentrations ranging from 0.1 to 250 μM for 48 hours at 37° C. in a humidified 5% CO2 atmosphere. Triplicate wells were used for each treatment. To each well, 10 μl of MTT (0.5 mg/ml final concentration) was added and the plates were incubated at 37° C. for 4 hours to allow MTT to form formazan crystals by reacting with metabolically active cells . The formazan crystals were solubilized overnight at 37° C. in a solution containing 10% SDS in 0.01 M HCl. The absorbence of each well was measured in a microplate reader (Labsystems) at 540 nm and a reference wavelength of 690 nm. To translate the OD540 values into the number of live cells in each well, the OD540 values were compared to those on standard OD540—versus—cell number curves generated for each cell line. The percent survival was calculated using the formula: % survival=Live cell number[test]/Live cell number [control]×100. The IC50 values were calculated by non-linear regression analysis using an Graphpad Prism software version 2.0 (Graphpad Software, Inc., San Diego, Calif.).

[3] = system: 833-K testicular cancer cells; experiment: Cytotoxic activity of oxovanadium(IV) compounds, 833-K; details: read-out: Cytotoxic Activity 833-K
Procedure: as §1

[4] = system: 64cp5 testicular cancer cells; experiment: Cytotoxic activity of oxovanadium(IV) compounds, 64cp5; details: read-out: Cytotoxic Activity 64cp5
Procedure: as §1

[5] = system: BT20 breast cancer cells; experiment: Cytotoxic activity of oxovanadium(IV) compounds, BT20; details: read-out: Cytotoxic Activity BT20
Procedure: as §1

[6] = system: HS-SULTAN cells; experiment: In situ detection of apoptosis, confocal microscopy, HS-SULTAN; details: 48 hours after treatment
Procedure: Exponentially growing cells were seeded in 6-well tissue culture plates and incubated with fresh medium containing compounds. […] The cells were fixed in 2% paraformaldehyde, washed with PBS and pelleted by centrifuging the tubes at 1000 rpm for 5 min. Cells pellets were resuspended in 50 μl of PBS, transferred to superforst plus slides and allowed to attach for 15 min. The cells were permeabilized with 0.1% triton X-100 in 0.1% citrate buffer and incubated for 1 hr at 37° C. with the reaction mixture containing terminal deoxynucleotidyl transferase (TdT) and fluorescein isothiocyanate (FITC)-conjugated dUTP. Cells were washed with PBS to remove unbound reagents and the coverslips were mounted onto slides with Vectashield containing propidium iodide (Vector Labs, Burlingame, Calif.) and slides were viewed with a confocal laser scanning microscope. […] In control reactions, the TdT enzyme was omitted from the reaction mixture.

Compound | morphological features of BT-20 cells [1] | IC50 [2] [nM] | IC50 [3] [nM] | IC50 [4] [nM] | IC50 [5] [nM] | apoptotic nuclei (FITC-dUTP / propidium iodide), HS-SULTAN [6]
[Cl-].[Cl-].[V+4].c1cc[cH-]c1.c1cc[cH-]c1 [VDC, VCp2Cl2] | complete disruption of microtubules |  |  |  |  | 
bis(4,7-dimethyl-1,10-phenanthroline)sulfatooxovanadium(IV) [Compound 29] |  | 980 ± 100 | 850 | 750 | 1500 | many apoptotic yellow nuclei
